IC50 data for 34 compounds are collected here from patent publication US8304422B2, “Compositions and methods for inhibition of the JAK pathway” (Rigel Pharmaceuticals, Inc., priority 2007, dated 2012).

pIC50: −log10 of the molar value.

The test system of this assay is BaF3 V617F cells; UKE-1. Description: Proliferation Assay (Cell Titer-Glo; Example 7). Type of assay: cell-based. As to conditions: proliferation 72 hours, inhibit JAK2 activity, cell line (BaF3 V617F or UKE-1) not stated. The method, boiled down:
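Proliferation IC50s reflect 72 h compound exposure at 37 °C, read by Cell Titer-Glo luminescence. Compound was serially diluted 3-fold from a 5 mM DMSO stock and added as a 2× solution; BaF3 V617F cells were grown in RPMI/10% FBS, UKE-1 in Iscove's DMEM with FBS, equine serum and hydrocortisone.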
On to `CCNS(=O)(=O)NCc1cccc(Nc2nc(Nc3ccc(N4CCN(C)CC4)cc3)ncc2Cl)c1` [II-131, 5-Chloro-N4-[(3-(ethylamino)sulfonylamino)methylphenyl]-N2-[4-(4-methyl-1-piperazinyl)phenyl]-2,4-pyrimidinediamine], for which the pIC50 was 6.82.

`CCOc1cc(Nc2ncc(Cl)c(Nc3ccc(CNS(=O)(=O)C4CC4)cc3)n2)cc(OC)c1OC` [II-210, 5-Chloro-N4-[4-(N-cyclopropylsulfonylamino)methylphenyl]-N2-[3,4-dimethoxy-5-ethoxyphenyl]-2,4-pyrimidinediamine] gave a pIC50 of 6.78.

For the compound `Cc1cc(CNS(=O)(=O)C2CC2)ccc1Nc1nc(Nc2ccc(N3CCN(C)CC3)cc2)ncc1Cl` [II-152, 5-Chloro-N4-[2-methyl-4-(N-cyclopropylsulfonylamino)methylphenyl]-N2-[4-(4-methyl-1-piperazinyl)phenyl]-2,4-pyrimidinediamine], the pIC50 was 6.45.

On to `COc1c(Cl)cc(Nc2ncc(C)c(Nc3ccc(CNS(=O)(=O)N(C)C)cc3)n2)cc1Cl` [II-102, 5-methyl-N2-[3,5-dichloro-4-methoxyphenyl]-N4-[(4-(dimethylamino)sulfonylamino)methylphenyl]-2,4-pyrimidinediamine], for which the pIC50 was 5.93.

The compound `Cc1cnc(Nc2ccc(C3CCN(C)CC3)cc2)nc1Nc1ccc(CNS(=O)(=O)N(C)C)cc1` [II-106, N4-[(4-(Dimethylamino)sulfonylamino)methylphenyl]-5-methyl-N2-[4-(1-methyl-4-piperidinyl)pheny]-2,4-pyrimidinediamine] showed a pIC50 of 6.42.

Turning to `COc1cc(Nc2ncc(F)c(Nc3ccc(CNS(=O)(=O)C4CC4)cc3)n2)cc(Cl)c1OC` [II-196, 5-Fluoro-N4-[4-(N-cyclopropylsulfonylamino)methylphenyl]-N2-[3,4-dimethoxy-5-chlorophenyl]-2,4-pyrimidinediamine], the pIC50 was 6.22.

In the case of `CCNS(=O)(=O)NCc1ccc(Nc2nc(Nc3cc(C)c(OC)c(C)c3)ncc2Cl)cc1` [II-108, 5-chloro-N2-(3,5-Dimethyl-4-methoxyphenyl)-N4-[(4-(ethylamino)sulfonylamino)methylphenyl]-2,4-pyrimidinediamine], the pIC50 is 7.07.

The compound `CN1CCN(c2ccc(Nc3ncc(Cl)c(Nc4ccc(CNS(=O)(=O)NC5CC5)cc4)n3)cn2)CC1` [II-169, 5-Chloro-N4-[4-((N-cyclopropylamino)sulfonylamino)methylphenyl]-N2-[6-(4-methyl-1-piperazinyl)-3-pyridinyl]-2,4-pyrimidinediamine] had a pIC50 of 6.46.

Compound `COc1c(C)cc(Nc2ncc(Cl)c(Nc3ccc(CNS(=O)(=O)C4CC4)cc3)n2)cc1Cl` [II-80, 5-Chloro-N2-(3-chloro-4-methoxy-5-methylphenyl]-N4-[4-(N-cyclopropylsulfonylamino)methylphenyl]-2,4-pyrimidinediamine] had a negative-log IC50 (pIC50) of 6.73.

As for `CCS(=O)(=O)N1CCc2c(cccc2Nc2nc(Nc3cc(OC)c(OC)c(OC)c3)ncc2Cl)C1` [VI-5, 5-Chloro-N4-[1,2,3,4-tetrahydro-2-(ethylsulfonyl)-5-isoquinolinyl]-N2-(3,4,5-trimethoxyphenyl)-2,4-pyrimidinediamine], the pIC50 is 6.10.

Turning to `Cc1cc(CNS(=O)(=O)NC2CC2)ccc1Nc1nc(Nc2ccc(N3CCN(C)CC3)nc2)ncc1Cl` [II-182, 5-Chloro-N4-[2-methyl-4-((N-cyclopropylamino)sulfonylamino)methylphenyl]-N2-[6-(4-methyl-1-piperazinyl)-3-pyridinyl]-2,4-pyrimidinediamine], the negative logarithm of the IC50 (pIC50) was 6.15.

On to `Cc1cc(Nc2ncc(Cl)c(Nc3ccc(CNS(=O)(=O)NC4CC4)cc3)n2)cc(C)c1OC(C)C` [II-156, 5-Chloro-N4-[4-((N-cyclopropylamino)sulfonylamino)methylphenyl]-N2-(3,5-dimethyl-4-(1-methyl)ethoxyphenyl)-2,4-pyrimidinediamine], for which the pIC50 is 7.24.

In turn, “5-Chloro-N2-[3,4-dimethyl-4-(2-(4-morpholinyl)ethoxy)phenyl]-N4-[2-methyl-4-((N-cyclopropylamino)sulfonylamino)methylphenyl]-2,4-pyrimidinediamine [II-183]” had a pIC50 of 6.85.

With `CCOc1c(C)cc(Nc2ncc(C)c(Nc3ccc(CNS(=O)(=O)C4CC4)cc3)n2)cc1C` [II-214, 5-Methyl-N4-[4-(N-cyclopropylsulfonylamino)methylphenyl]-N2-[3,5-dimethyl-4-ethoxyphenyl]-2,4-pyrimidinediamine], the pIC50 is 7.26.

With “5-Chloro-N4-[4-(N-cyclopropylsulfonylamino)methylphenyl]-N2-[3-methyl-4-(N-methylpiperizin-4-yl)phenyl]-2,4-pyrimidinediamine [II-203]”, the pIC50 was 5.82.

Compound `COc1c(C)cc(Nc2ncc(Cl)c(Nc3ccc(CNS(=O)(=O)NC4CC4)cc3)n2)cc1C` [II-154, 5-Chloro-N4-[4-((N-cyclopropylamino)sulfonylamino)methylphenyl]-N2-(3,5-dimethyl-4-methoxyphenyl)-2,4-pyrimidinediamine] had a pIC50 of 7.37.

Turning to “5-Chloro-N4-[4-(N-cyclopropylsulfonylamino)methylphenyl]-N2-[3,4-dimethyl-4-(2-(4-morpholinyl)ethoxy)phenyl]-2,4-pyrimidinediamine [II-160]”, the pIC50 is 7.52.

`CCNS(=O)(=O)NCc1cccc(Nc2nc(Nc3ccc(N4CCN(C)CC4)c(C)c3)ncc2F)c1` [II-139, N4-[3-((Ethylamino)sulfonylamino)methylphenyl]-5-fluoro-N2-[3-methyl-4-(4-methyl-1-piperazinyl)phenyl]-2,4-pyrimidinediamine] showed a negative logarithm of the IC50 (pIC50) of 5.36.

In turn, `Cc1cnc(Nc2cc(C)c(OCCN3CCOCC3)c(C)c2)nc1Nc1cccc(S(=O)(=O)NC(C)(C)C)c1` [I-20] gave a pIC50 of 6.72.

Turning to `CCNS(=O)(=O)NCc1ccc(Nc2nc(Nc3ccc(N4CCC(F)(F)CC4)cc3)ncc2C)cc1` [II-123, N2-[4-(4,4-Difluoro-1-piperidinyl)phenyl]-N4-[(4-(ethylamino)sulfonylamino)methylphenyl]-5-methyl-2,4-pyrimidinediamine], the negative logarithm of the IC50 (pIC50) was 6.43.

The compound `Cc1cnc(Nc2ccc(-c3ccccc3)cc2)nc1Nc1ccc(CCNS(=O)(=O)C2CC2)cc1` [II-75] had a pIC50 of 4.98.

Compound `CCNS(=O)(=O)NCc1ccc(Nc2nc(Nc3ccc(N4CCN(C)CC4)cc3)ncc2Cl)cc1` [II-114, 5-Chloro-N4-[(4-(ethylamino)sulfonylamino)methylphenyl]-N2-[4-(4-methyl-1-piperazinyl)phenyl]-2,4-pyrimidinediamine] gave a pIC50 of 6.75.

`Cc1cnc(Nc2ccc(C3CCN(C)CC3)cc2)nc1Nc1ccc2c(c1)C(NS(=O)(=O)C1CC1)CC2` (racemic) [V-5, (+/−)-N4-[1-(Cyclopropylsulfonylamino)indan-6-yl]-5-methyl-N2-[4-(1-methyl-4-piperidinyl)pheny]-2,4-pyrimidinediamine]: the pIC50 is 6.00.

As to `Cc1cc(N2CCN(C)CC2)ccc1Nc1ncc(C)c(Nc2ccc(CCNS(=O)(=O)C3CC3)cc2)n1` [II-68], the pIC50 is 5.38.

Compound `Cc1cc(OC(C)C)cc(C)c1Nc1ncc(Cl)c(Nc2ccc(CCNS(=O)(=O)C3CC3)cc2)n1` [II-48, 5-Chloro-N4[4-(N-cyclopropylsulfonylamino)ethylphenyl]-N2-[4-(2,6-dimethyl-isopropoxy)phenyl]-2,4-pyrimidinediamine] had a pIC50 of 6.16.

As to “5-Chloro-N4-[3-(N-tert-butylsulfonyl)phenyl]-N2-[3,4-trimethyl-4-methoxyphenyl]-2,4-pyrimidinediamine [I-16]”, the pIC50 is 4.75.

As to `COc1c(C)cc(Nc2ncc(C(F)(F)F)c(Nc3ccc(CNS(=O)(=O)C4CC4)cc3)n2)cc1C` [II-126, N4-[4-(N-Cyclopropylsulfonylamino)methylphenyl]-N2-(3,5-dimethyl-4-methoxyphenyl)-5-trifluoromethyl-2,4-pyrimidinediamine], the pIC50 is 5.82.

In turn, `CCNS(=O)(=O)NCc1ccc(Nc2nc(Nc3ccc(N4CCN(C)CC4)cc3)ncc2Cl)c(C)c1` [II-144, 5-Chloro-N4-[2-methyl-4-(ethylaminosulfonylamino)methylphenyl]-N2-[4-(4-methyl-1-piperazinyl)phenyl]-2,4-pyrimidinediamine] had a pIC50 of 6.26.

As to “5-Chloro-N4-[4-(N-Cyclopropylsulfonylamino)methylphenyl]-N2-[3-methyl-4-[(1S,4S)-5-methyl-2,5-diazabicyclo[2.2.1]hept-2-yl]phenyl]-2,4-pyrimidinediamine [II-185]”, the pIC50 is 6.96.

Regarding `CCNS(=O)(=O)NCc1ccc(Nc2nc(Nc3cc(C)c(OC)c(OC)c3)ncc2Cl)cc1` [II-109, 5-Chloro-4-[(4-(ethylamino)sulfonylamino)methylphenyl]-N2-(3,4-dimethoxy-5-methylphenyl)-2,4-pyrimidinediamine], the pIC50 is 6.82.

`CCNS(=O)(=O)NCc1ccc(Nc2nc(Nc3cc(C)c(OC)c(Cl)c3)ncc2C)cc1` [II-118, N2-(3-Chloro-4-methoxy-5-methylphenyl)-N4-[(4-(ethylamino)sulfonylamino)methylphenyl]-5-methyl-2,4-pyrimidinediamine] showed a pIC50 of 6.64.

Compound `CN1CCN(c2ccc(Nc3ncc(Cl)c(Nc4ccc(CNS(=O)(=O)NC5CC5)cc4)n3)cc2)CC1` [II-167, 5-Chloro-N4-[4-((N-cyclopropylamino)sulfonylamino)methylphenyl]-N2-[4-(4-methyl-1-piperazinyl)phenyl]-2,4-pyrimidinediamine] gave a pIC50 of 6.69.

With “5-Chloro-N4-[4-(N-cyclopropylsulfonylamino)methylphenyl]-N2-[4-(N-methylpiperizin-4-yl)phenyl]-2,4-pyrimidinediamine [II-188]”, the pIC50 was 6.65.

`O=S(=O)(NCc1ccc(Nc2nc(Nc3cc(C4CC4)n[nH]3)ncc2Cl)cc1)C1CC1` [VIII-12, 5-Chloro-N4-[4-(N-cyclopropylsulfonylamino)methylphenyl]-N2-[5-cyclopropylpyrazol-3-yl)-2,4-pyrimidinediamine] gave a pIC50 of 6.06.

One may read the pIC50 as −log10 of the IC50, conventionally taken in molar units. Read a low pIC50 as a large IC50.
